From patent publication US11578087B2, “Oxaborole esters and uses thereof” (priority 2016, dated 2023) come the findings set out here.

Molecules are shown by their SMILES. Like-named read-outs stand apart in the source and are kept apart here.

The subject of experiment [1] is IL3000 T. congolense (drug sensitive) strain. Put plainly: In vitro Alamar Blue 72 h drug sensitivity assay for T. congolense. The format is cell-based, Trypanosoma congolense. Particulars: bloodstream form, 69 h + 3 h Resazurin, 34° C., read-out: IC50: I Org. Growth T. congolense 3 d. A digest of the protocol: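 Bloodstream-form trypanosomes in HMI medium with 20% bovine serum were exposed to compounds for 69 h at 34° C, 5% CO2, then resazurin for another 3 h. Fluorescence read at ex 536/em 588 nm; IC50 from 11-point sigmoidal dose-response curves, at least three independent runs.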

Experiment [2] has as its system STIB719/ILRAD560 T. vivax (drug sensitive) strain. Put plainly: Ex vivo Alamar Blue 48 h drug sensitivity assay for T. vivax. The format is cell-based. The settings on record: Trypanosoma vivax, ex vivo bloodstream form from mouse, 45 hrs + 3 hrs Resazurin, 37° C., read-out: IC50: I Hypoxanthine Incorporation T. vivax 2 d.

`Cc1c(C(=O)N[C@H](C(=O)OCc2ccc(F)cc2F)C(C)C)ccc2c1B(O)OC2` [Example 6-039, 2,4-Difluorobenzyl (1-hydroxy-7-methyl-1,3-dihydrobenzo[c][1,2]oxaborole-6-carbonyl)-L-valinate]: the IC50 in experiment [1] (Trypanosoma congolense, 72 h) was 0.51 to 9.99 nM; in experiment [2] it was less than 0.5 nM.
For `Cc1c(C(=O)N[C@H](C(=O)OCc2ccc(OCCCN3CCCC3)c(F)c2)C(C)C)ccc2c1B(O)OC2` [Example 6-246, 3-Fluoro-4-(3-(pyrrolidin-1-yl)propoxy)benzyl (1-hydroxy-7-methyl-1,3-dihydrobenzo[c][1,2]oxaborole-6-carbonyl)-L-valinate] the same measures were 0.51 to 9.99 nM and less than 0.5 nM.
`COC(=O)[C@@H](CCc1ccccc1)NC(=O)c1ccc2c(c1)B(O)OC2` [Example 6-025, Methyl (R)-2-(1-hydroxy-1,3-dihydrobenzo[c][1,2]oxaborole-6-carboxamido)-4-phenylbutanoate]: the IC50 in experiment [1] (Trypanosoma congolense, 72 h) was 10 to 5000 nM; in experiment [2] it was greater than 2000 nM.
Take `CCCc1c(C(=O)N[C@H](C(=O)OCc2ccc(F)cc2)C(C)C)ccc2c1B(O)OC2` [Example 6-064, 4-fluorobenzyl (1-hydroxy-7-propyl-1,3-dihydrobenzo[c][1,2]oxaborole-6-carbonyl)-L-valinate]: the IC50 in experiment [1] (Trypanosoma congolense, 72 h) was 0.51 to 9.99 nM; in experiment [2], 0.51 to 49.9 nM.
For `Cc1c(C(=O)N[C@H](C(=O)OCc2ccc(F)c(Cl)c2)C(C)C)ccc2c1B(O)OC2` [Example 6-051, 3-Chloro-4-fluorobenzyl (1-hydroxy-7-methyl-1,3-dihydrobenzo[c][1,2]oxaborole-6-carbonyl)-L-valinate] the same measures were less than 0.5 nM and less than 0.5 nM.
For `Cc1c(C(=O)N[C@H](C(=O)OCc2ccc(F)cc2)[C@H](C)O)ccc2c1B(O)OC2` [Example 6-088, 4-Fluorobenzyl (1-hydroxy-7-methyl-1,3-dihydrobenzo[c][1,2]oxaborole-6-carbonyl)-L-allothreoninate] the same measures were 0.51 to 9.99 nM and 0.51 to 49.9 nM.
The like results for `Cc1c(C(=O)N[C@H](C(=O)OCc2ccc(F)cc2)c2ccccc2)ccc2c1B(O)OC2` [Example 6-045, 4-Fluorobenzyl (S)-2-(1-hydroxy-7-methyl-1,3-dihydrobenzo[c][1,2]oxaborole-6-carboxamido)-2-phenylacetate] were, in that order, less than 0.5 nM and less than 0.5 nM.
Turning to `CC(C)[C@H](NC(=O)c1ccc2c(c1C(F)(F)F)B(O)OC2)C(=O)OCc1ccc(F)cc1` [Example 6-070, 4-Fluorobenzyl (1-hydroxy-7-(trifluoromethyl)-1,3-dihydrobenzo[c][1,2]oxaborole-6-carbonyl)-L-valinate], the IC50 in experiment [1] (Trypanosoma congolense, 72 h) fell in the range of 10 to 5000 nM; in experiment [2], 50 to 2000 nM.
As for `C[C@H](NC(=O)c1ccc2c(c1)B(O)OC2)C(=O)O[C@H](C)c1ccccc1` [Example 6-019, (R)-1-Phenylethyl (1-hydroxy-1,3-dihydrobenzo[c][1,2]oxaborole-6-carbonyl)-L-alaninate], the IC50 lay in the range of 0.51 to 9.99 nM in experiment [1] (Trypanosoma congolense, 72 h) and 50 to 2000 nM in experiment [2].
The like results for `C[C@H](NC(=O)c1ccc2c(c1)B(O)OC2)C(=O)O[C@@H](C)c1ccccc1` [Example 6-022, (S)-1-phenylethyl (1-hydroxy-1,3-dihydrobenzo[c][1,2]oxaborole-6-carbonyl)-L-alaninate] were, in that order, 10 to 5000 nM and 50 to 2000 nM.
For `CC(C)[C@H](NC(=O)c1ccc2c(c1)B(O)OC2(C)C)C(=O)OCc1ccccc1` [Example 6-032, Benzyl (1-hydroxy-3,3-dimethyl-1,3-dihydrobenzo[c][1,2]oxaborole-6-carbonyl)-L-valinate] the same measures were 10 to 5000 nM and greater than 2000 nM.
For `CCc1c(C(=O)N[C@H](C(=O)OCc2ccc(F)cc2)C(C)C)ccc2c1B(O)OC2` [Example 6-052, 4-Fluorobenzyl (7-ethyl-1-hydroxy-1,3-dihydrobenzo[c][1,2]oxaborole-6-carbonyl)-L-valinate] the same measures were less than 0.5 nM and less than 0.5 nM.
In the case of `COC(=O)[C@@H](Cc1ccccc1)NC(=O)c1ccc2c(c1)B(O)OC2` [Example 6-018, Methyl (1-hydroxy-1,3-dihydrobenzo[c][1,2]oxaborole-6-carbonyl)-D-phenylalaninate], the IC50 in experiment [1] (Trypanosoma congolense, 72 h) was in the range of 10 to 5000 nM; in experiment [2] it was 50 to 2000 nM.
The like results for `CC(C)c1c(C(=O)N[C@H](C(=O)OCc2ccc(F)cc2)C(C)C)ccc2c1B(O)OC2` [Example 6-062, 4-Fluorobenzyl (1-hydroxy-7-isopropyl-1,3-dihydrobenzo[c][1,2]oxaborole-6-carbonyl)-L-valinate] were, in that order, 0.51 to 9.99 nM and less than 0.5 nM.
The like results for `Cc1c(C(=O)N[C@H](C(=O)OCc2cccc(F)c2)C(C)C)ccc2c1B(O)OC2` [Example 6-042, 3-Fluorobenzyl (1-hydroxy-7-methyl-1,3-dihydrobenzo[c][1,2]oxaborole-6-carbonyl)-L-valinate] were, in that order, 0.51 to 9.99 nM and less than 0.5 nM.
For `C[C@H](OC(=O)[C@H](Cc1ccccc1)NC(=O)c1ccc2c(c1)B(O)OC2)c1ccccc1` [Example 6-024, (S)-1-phenylethyl (1-hydroxy-1,3-dihydrobenzo[c][1,2]oxaborole-6-carbonyl)-L-phenylalaninate] the same measures were 0.51 to 9.99 nM and 50 to 2000 nM.
For the compound `CC(C)[C@H](NC(=O)c1ccc2c(c1C1CC1)B(O)OC2)C(=O)OCc1ccc(F)cc1` [Example 6-057, 4-Fluorobenzyl (7-cyclopropyl-1-hydroxy-1,3-dihydrobenzo[c][1,2]oxaborole-6-carbonyl)-L-valinate], the IC50 in experiment [1] (Trypanosoma congolense, 72 h) is 0.51 to 9.99 nM; in experiment [2], less than 0.5 nM.
For `Cc1c(C(=O)N[C@H](C(=O)OCc2cc(F)cc(F)c2)C(C)C)ccc2c1B(O)OC2` [Example 6-048, 3,5-Difluorobenzyl (1-hydroxy-7-methyl-1,3-dihydrobenzo[c][1,2]oxaborole-6-carbonyl)-L-valinate] the same measures were less than 0.5 nM and less than 0.5 nM.
For `CC(C)[C@H](NC(=O)c1ccc2c(c1)B(O)OC2)C(=O)OCc1ccc(F)cc1F` [Example 6-031, 2,4-Difluorobenzyl (1-hydroxy-1,3-dihydrobenzo[c][1,2]oxaborole-6-carbonyl)-L-valinate], the IC50 in experiment [1] (Trypanosoma congolense, 72 h) was 0.51 to 9.99 nM; in experiment [2], 0.51 to 49.9 nM.
The like results for `COC(=O)[C@H](C)NC(=O)c1ccc2c(c1)B(O)OC2` [Example 6-016, Methyl (1-hydroxy-1,3-dihydrobenzo[c][1,2]oxaborole-6-carbonyl)-L-alaninate] were, in that order, 10 to 5000 nM and greater than 2000 nM.
For `COC(=O)[C@H](CCc1ccccc1)NC(=O)c1ccc2c(c1)B(O)OC2` [Example 6-027, Methyl (S)-2-(1-hydroxy-1,3-dihydrobenzo[c][1,2]oxaborole-6-carboxamido)-4-phenylbutanoate] the same measures were 10 to 5000 nM and 50 to 2000 nM.
For `C[C@@H](OC(=O)[C@H](Cc1ccccc1)NC(=O)c1ccc2c(c1)B(O)OC2)c1ccccc1` [Example 6-021, (R)-1-phenylethyl (1-hydroxy-1,3-dihydrobenzo[c][1,2]oxaborole-6-carbonyl)-L-phenylalaninate] the same measures were 0.51 to 9.99 nM and 0.51 to 49.9 nM.
`C[C@H](NC(=O)c1ccc2c(c1)B(O)OC2)C(=O)OCc1ccccc1` [Example 6-174, Benzyl (1-hydroxy-1,3-dihydrobenzo[c][1,2]oxaborole-6-carbonyl)-L-alaninate]: the IC50 in experiment [1] (Trypanosoma congolense, 72 h) lay in the range of 0.51 to 9.99 nM; in experiment [2] it was 50 to 2000 nM.
On to `Cc1c(C(=O)N[C@H](C(=O)OCc2ccc3c(c2)C(=O)CS3(=O)=O)C(C)C)ccc2c1B(O)OC2` [Example 6-104, (1,1-Dioxido-3-oxo-2,3-dihydrobenzo[b]thiophen-5-yl)methyl (1-hydroxy-7-methyl-1,3-dihydrobenzo[c][1,2]oxaborole-6-carbonyl)-L-valinate], for which the IC50 in experiment [1] (Trypanosoma congolense, 72 h) was 10 to 5000 nM; in experiment [2], 0.51 to 49.9 nM.
For `Cc1c(C(=O)N[C@H](C(=O)OCc2cnc(C(F)(F)F)nc2)C(C)C)ccc2c1B(O)OC2` [Example 6-159, (2-(Trifluoromethyl)pyrimidin-5-yl)methyl (1-hydroxy-7-methyl-1,3-dihydrobenzo[c][1,2]oxaborole-6-carbonyl)-L-valinate] the same measures were less than 0.5 nM and less than 0.5 nM.
For `COC(=O)[C@@H](NC(=O)c1ccc2c(c1C)B(O)OC2)[C@@H](C)OCc1ccccc1` [Example 6-078, Methyl O-benzyl-N-(1-hydroxy-7-methyl-1,3-dihydrobenzo[c][1,2]oxaborole-6-carbonyl)-L-threoninate] the same measures were 10 to 5000 nM and 0.51 to 49.9 nM.
The like results for `CC(C)c1c(C(=O)N[C@H](C(=O)OCc2ccc(S(C)(=O)=O)cc2)C(C)C)ccc2c1B(O)OC2` [Example 6-084, 4-(Methylsulfonyl)benzyl (1-hydroxy-7-isopropyl-1,3-dihydrobenzo[c][1,2]oxaborole-6-carbonyl)-L-valinate] were, in that order, 10 to 5000 nM and 0.51 to 49.9 nM.
Turning to `COC(=O)[C@H](Cc1ccccc1)NC(=O)c1ccc2c(c1)B(O)OC2` [Example 6-026, Methyl (1-hydroxy-1,3-dihydrobenzo[c][1,2]oxaborole-6-carbonyl)-L-phenylalaninate], the IC50 was in the range of 0.51 to 9.99 nM in experiment [1] and 50 to 2000 nM in experiment [2].
On to `CC(C)C[C@H](NC(=O)c1ccc2c(c1)B(O)OC2)C(=O)OCc1ccccc1` [Example 6-006, Benzyl (1-hydroxy-1,3-dihydrobenzo[c][1,2]oxaborole-6-carbonyl)-L-leucinate], for which the IC50 in experiment [1] (Trypanosoma congolense, 72 h) is 0.51 to 9.99 nM; in experiment [2], 0.51 to 49.9 nM.
